Test results reported in US20050124699A1, “Drugs for treating or preventing disorders of corneal and/or conjunctival epithelial cells” (WAKAMOTO PHARMACEUTICAL CO., LTD., priority 2002, published 2005).
Like-named read-outs stand apart in the source and are kept apart here.

How the values were obtained:
[1] = tested on: SV40 immortalized human corneal epithelial cell strain (HCEC)
Description: (§1) Cells Used: The corneal cell used herein was SV40 immortalized human corneal epithelial cell strain (HCEC) (Araki-Sasaki et al., IOVS, 1995, 36:614-621) and the conjunctival cell used herein was Chang's human conjunctival epithelial cell strain (CCL-20.2) (ATC CCCL-20.2).
(§2) Experiments: The cells were cultivated to a density of 5×10^4 cells/mL in a growth medium containing 10% serum, inoculated in a 96-well multiplate in an amount of 100 μL/well and cultivated at 37° C. overnight. After the cultivation thereof to a confluent of 30 to 50%, the culture medium was dissolved in a fresh culture medium, followed by the addition of stepwise diluted MS and further diclofenac sodium and the subsequent cultivation at 37° C. for 24 hours. After the cultivation, each well was washed, followed by the addition of a fresh culture medium (100 μL/well) and WST-8 (10 μL/well; Cell Counting Kit-8 available from DOJIN Chemical Co., Ltd.), subsequent cultivation for 1.5 hour and the determination of the absorbance at 450-660 nm to thus calculate the viable cell count.
(§3) Method for Evaluating Toxicity: A test group free of any candidate compound was used as a negative control, the absorbance thereof was assumed to be 100% and a dose-correlation curve was prepared, which was expressed as the cell survival rates as a function of the concentration of each test substance.

[2] = tested on: Chang's human conjunctival epithelial cell strain (CCL-20.2); type: cell-based
Description: as §1, §2, §3

corneal epithelial cells [3] = settings: cited from earlier work; for effect on healing of the damaged area of the epithelium: addition to the monolayer culture
[4] = tested on: epithelial cells of lenses; settings: cited from earlier work
corneal epithelial cells [5] = settings: cited from earlier work
corneal epithelial cells [6] = settings: cultivation of the epithelial cells; cited from earlier work
[7] = MS 0.01 μM + diclofenac sodium 0.25 mM
[8] = MS 0.01 μM + diclofenac sodium 0.5 mM
[9] = MS 0.01 μM, diclofenac sodium 0 mM
[10] = MS 0.1 μM + diclofenac sodium 0.25 mM
[11] = MS 0.1 μM + diclofenac sodium 0.5 mM
[12] = MS 0.1 μM, diclofenac sodium 0 mM
[13] = MS 1 μM + diclofenac sodium 0.25 mM
[14] = MS 1 μM + diclofenac sodium 0.5 mM
[15] = MS 1 μM, diclofenac sodium 0 mM
[16] = MS 10 μM + diclofenac sodium 0.25 mM
[17] = MS 10 μM + diclofenac sodium 0.5 mM
[18] = MS 10 μM, diclofenac sodium 0 mM
[19] = MS 100 μM + diclofenac sodium 0.25 mM
[20] = MS 100 μM + diclofenac sodium 0.5 mM
[21] = MS 100 μM, diclofenac sodium 0 mM
[22] = added together with diclofenac sodium
[23] = diclofenac sodium 0.25 mM, MS 0 μM, 24 hours
[24] = diclofenac sodium 0.5 mM, MS 0 μM, 24 hours

For CCCCC(C)(O)C/C=C/[C@H]1[C@H](O)CC(=O)[C@@H]1CCCCCCC(=O)OC (mixture of isomers) [Misoprostol], the “cell survival rate (% of negative control)” value [1, 7] was 69.9 ± 8.3%, the “cell survival rate (% of negative control)” value [1, 8] was 59.2 ± 10.4% and the “cell survival rate (% of negative control)” value ([1]; MS 0.01 μM + diclofenac sodium 1 mM) was 21.1 ± 9.9%. For the same compound, the “cell survival rate (% of negative control)” value [1, 9] was 87.2 ± 13.2%, the “cell survival rate (% of negative control)” value [1, 10] was 72.5 ± 12.6% and the “cell survival rate (% of negative control)” value [1, 11] was 61.6 ± 13.6%. The “cell survival rate (% of negative control)” value ([1]; MS 0.1 μM + diclofenac sodium 1 mM) was 22.2 ± 8.3%, the “cell survival rate (% of negative control)” value [1, 12] was 98.9 ± 20.4% and the “cell survival rate (% of negative control)” value [1, 13] was 73.1 ± 11.7%. The “cell survival rate (% of negative control)” value [1, 14] was 68.8 ± 17.1%, the “cell survival rate (% of negative control)” value ([1]; MS 1 μM + diclofenac sodium 1 mM) was 22.4 ± 8.0% and the “cell survival rate (% of negative control)” value [1, 15] was 99.1 ± 22.3%. The “cell survival rate (% of negative control)” value [1, 16] was 69.6 ± 10.5%, the “cell survival rate (% of negative control)” value [1, 17] was 68.4 ± 13.4% and the “cell survival rate (% of negative control)” value ([1]; MS 10 μM + diclofenac sodium 1 mM) was 22.6 ± 9.5%. For the same compound, the “cell survival rate (% of negative control)” value [1, 18] was 102.4 ± 24.5%, the “cell survival rate (% of negative control)” value [1, 19] was 31.7 ± 8.8% and the “cell survival rate (% of negative control)” value [1, 20] was 7.2 ± 4.5%. The “cell survival rate (% of negative control)” value ([1]; MS 100 μM + diclofenac sodium 1 mM) was −1.3 ± 1.3%, the “cell survival rate (% of negative control)” value [1, 21] was 99.2 ± 30.7% and the “cell survival rate (% of negative control)” value ([2]; MS 0.01 μM + diclofenac sodium 0.125 mM) was 91.1 ± 8.1%. The “cell survival rate (% of negative control)” value [2, 7] was 42.6 ± 4.9%, the “cell survival rate (% of negative control)” value [2, 8] was 33.1 ± 7.4% and the “cell survival rate (% of negative control)” value [2, 9] was 93.0 ± 14.8%. The “cell survival rate (% of negative control)” value ([2]; MS 0.1 μM + diclofenac sodium 0.125 mM) was 97.1 ± 4.5%, the “cell survival rate (% of negative control)” value [2, 10] was 45.0 ± 6.7% and the “cell survival rate (% of negative control)” value [2, 11] was 34.2 ± 9.3%. For the same compound, the “cell survival rate (% of negative control)” value [2, 12] was 98.6 ± 20.2%, the “cell survival rate (% of negative control)” value ([2]; MS 1 μM + diclofenac sodium 0.125 mM) was 96.4 ± 8.4% and the “cell survival rate (% of negative control)” value [2, 13] was 44.0 ± 6.4%. The “cell survival rate (% of negative control)” value [2, 14] was 34.4 ± 12.2%, the “cell survival rate (% of negative control)” value [2, 15] was 104.0 ± 26.6% and the “cell survival rate (% of negative control)” value ([2]; MS 10 μM + diclofenac sodium 0.125 mM) was 97.8 ± 9.6%. For the same compound, the “cell survival rate (% of negative control)” value [2, 16] was 46.4 ± 7.3%, the “cell survival rate (% of negative control)” value [2, 17] was 33.7 ± 9.4% and the “cell survival rate (% of negative control)” value [2, 18] was 99.5 ± 22.2%. The “cell survival rate (% of negative control)” value ([2]; MS 100 μM + diclofenac sodium 0.125 mM) was 55.4 ± 14.7%, the “cell survival rate (% of negative control)” value [2, 19] was 31.5 ± 7.4% and the “cell survival rate (% of negative control)” value [2, 20] was 28.7 ± 6.4%. The “cell survival rate (% of negative control)” value [2, 21] was 86.3 ± 12.0% and the “concentration at which MS per se had a cytotoxic effect” value ([2]; human, 24 h) was 100 µM.
For CCCCC(C)(C)[C@H](O)/C=C/[C@H]1[C@H](O)CC(=O)[C@@H]1C/C=C\CCCC(=O)O [16,16-dimethyl prostaglandin E2], the “effect on healing of the damaged epithelium” value (corneal epithelial cells [3]; added alone) is listed as “does not show any effect on the healing of the damaged corneal epithelium” and the “effect on healing of the damaged epithelium” value (corneal epithelial cells [3]; [22]) is listed as “does not show any effect on the healing of the damaged corneal epithelium”.
In the case of O=C(O)Cc1ccccc1Nc1c(Cl)cccc1Cl [Diclofenac Sodium, diclofenac sodium], the “effect on growth of the corneal epithelial cells” value ([1]; 0.25 mM, 0.5 mM or 1 mM, dose-dependent) was “inhibits the growth of the corneal epithelial cells”, the “cell survival rate (% of negative control)” value [1, 23] was 56.9 ± 8.7% and the “cell survival rate (% of negative control)” value [1, 24] was 48.2 ± 6.7%. The “cell survival rate (% of negative control)” value ([1]; diclofenac sodium 1 mM, MS 0 μM, 24 hours) was 17.3 ± 5.4%, the “cell survival rate (% of negative control)” value ([2]; diclofenac sodium 0.125 mM, MS 0 μM, 24 hours) was 74.0 ± 10.0% and the “cell survival rate (% of negative control)” value [2, 23] was 37.8 ± 5.7%. For the same compound, the “cell survival rate (% of negative control)” value [2, 24] was 29.3 ± 5.6%, the “effect on proliferation of lens epithelial cells” value ([4]; 25, 50 and 100 μM added to the culture medium) was “control of the proliferation of the epithelial cells” and the “effect on epithelium extension promoted by EGF” value (corneal epithelial cells [5]; added simultaneously with EGF) was “inhibit the epithelium extension-promoting effect due to the EGF”. The “effect on extension of the corneal epithelial cells” value (corneal epithelial cells [5]; agent alone) was “does not affect the extension of the corneal epithelial cells”, the “effect on proliferation of the epithelium” value (corneal epithelial cells [6]) was “do not affect the proliferation of the epithelium” and the “effect on healing of the damaged area of the epithelium” value (corneal epithelial cells [3]) was “would inhibit the damaged epithelium-healing”.
In the case of CCCCC[C@H](O)/C=C/[C@H]1[C@H](O)CC(=O)[C@@H]1C/C=C\CCCC(=O)O [PGE2, prostaglandin E2], the “effect on growth of lens epithelial cells” value ([4]; 1, 10, 50 and 100 μM added to the culture medium) is listed as “permits the growth of the epithelial cells”.
In the case of CC(C)OC(=O)CCC/C=C\C[C@@H]1[C@@H](CC[C@@H](O)CCc2ccccc2)[C@H](O)C[C@@H]1O [latanoprost], the “effect on healing of the damaged epithelium” value (corneal epithelial cells [3]; added alone) is listed as “any such effect cannot be obtained” and the “effect on healing of the damaged epithelium” value (corneal epithelial cells [3]; [22]) is listed as “can recover the healing of the damaged epithelium”.
In the case of EGF: epithelium growth factor (EGF), the “effect on healing of the damaged area of the epithelium” value (corneal epithelial cells [3]) is given as “would promote the healing of the wound on the damaged area”.
